Consider ten molecules from ChEMBL document CHEMBL3751806, “Synthesis, experimental evaluation and molecular modelling of hydroxamate derivatives as zinc metalloproteinase inhibitors” (Eur J Med Chem, 2016).

Where only a bound is given, the exact number is not on record here.

The target of assay [1] is Matrix metalloproteinase-9 (Homo sapiens, UniProt P14780). In words: Inhibition of recombinant human MMP9 after 2 hrs using FS-6 as substrate by fluorometry.
The target in assay [2] is 72 kDa type IV collagenase (Homo sapiens, UniProt P08253). In words: Inhibition of recombinant human MMP2 after 2 hrs using FS-6 as substrate by fluorometry.
The next assay has as its target Elastase (Pseudomonas aeruginosa (strain ATCC 15692 / PAO1 / 1C / PRS 101 / LMG12228), UniProt P14756). Nature of the assay: Inhibition of Pseudomonas aeruginosa pseudolysin pretreated with compound for 1 hr followed by the addition of 1.73 uM bradykinin like substrate by spectrofluorometry.
The target of assay [3] is Disintegrin and metalloproteinase domain-containing protein 17 (Homo sapiens, UniProt P78536). Nature of the assay: Inhibition of recombinant human ADAM17 after 30 mins using FS-6 as substrate by fluorometry.
The target in assay [4] is Thermolysin (Bacillus thermoproteolyticus) (UniProt P00800). In words: Inhibition of Bacillus thermoproteolyticus thermolysin pretreated with compound for 15 mins followed by the addition of Abz-Ala-Gly-leu-Ala-p-nitrobenzalamide as substrate by spectrofluorometry.
In assay [5] the target is T1, Thermolysin (Bacillus thermoproteolyticus, UniProt P00800).
T1 sequence (P00800 whole entry): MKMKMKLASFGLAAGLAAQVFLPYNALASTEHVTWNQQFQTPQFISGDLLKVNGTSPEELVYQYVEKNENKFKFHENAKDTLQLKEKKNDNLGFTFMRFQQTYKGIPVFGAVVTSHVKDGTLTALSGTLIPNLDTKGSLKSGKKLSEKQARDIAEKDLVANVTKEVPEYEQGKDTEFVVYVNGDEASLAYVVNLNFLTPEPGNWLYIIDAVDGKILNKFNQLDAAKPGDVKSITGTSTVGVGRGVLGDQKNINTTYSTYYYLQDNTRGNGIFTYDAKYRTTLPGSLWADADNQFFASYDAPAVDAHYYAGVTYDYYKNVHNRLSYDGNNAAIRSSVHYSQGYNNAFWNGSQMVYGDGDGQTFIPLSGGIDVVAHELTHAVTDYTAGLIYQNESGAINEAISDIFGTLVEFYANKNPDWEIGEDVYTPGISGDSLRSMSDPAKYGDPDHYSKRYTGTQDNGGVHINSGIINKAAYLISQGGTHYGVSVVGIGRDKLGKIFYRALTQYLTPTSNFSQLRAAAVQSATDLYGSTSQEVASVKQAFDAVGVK
Nature of the assay: Inhibition of Bacillus thermoproteolyticus thermolysin pretreated with compound for 1 hr followed by the addition of 3.33 uM bradykinin like substrate by spectrofluorometry assay.

Assay [6] concerns the target T1, Thermolysin. Nature of the assay: Inhibition of Bacillus thermoproteolyticus thermolysin pretreated with compound for 15 mins followed by the addition of 75 uM Abz-Ala-Gly-leu-Ala-p-nitrobenzalamide as substrate by spectrofluorometry.

Chain of Elastase (P14756 whole entry, the tested form may be a part): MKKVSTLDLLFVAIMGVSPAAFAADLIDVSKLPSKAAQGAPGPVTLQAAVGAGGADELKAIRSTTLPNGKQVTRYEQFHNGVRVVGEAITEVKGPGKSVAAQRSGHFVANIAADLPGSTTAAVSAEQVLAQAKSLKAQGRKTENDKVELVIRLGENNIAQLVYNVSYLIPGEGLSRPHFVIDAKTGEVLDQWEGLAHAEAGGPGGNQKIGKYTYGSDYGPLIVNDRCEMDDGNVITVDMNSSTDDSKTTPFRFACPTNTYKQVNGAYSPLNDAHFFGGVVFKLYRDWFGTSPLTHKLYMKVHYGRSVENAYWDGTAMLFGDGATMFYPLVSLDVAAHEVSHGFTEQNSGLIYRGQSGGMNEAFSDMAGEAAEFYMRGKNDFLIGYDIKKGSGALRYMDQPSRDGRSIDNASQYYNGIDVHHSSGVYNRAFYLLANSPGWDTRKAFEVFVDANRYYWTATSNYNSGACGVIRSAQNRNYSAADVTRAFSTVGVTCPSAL
Chain of Matrix metalloproteinase-9 (P14780 whole entry): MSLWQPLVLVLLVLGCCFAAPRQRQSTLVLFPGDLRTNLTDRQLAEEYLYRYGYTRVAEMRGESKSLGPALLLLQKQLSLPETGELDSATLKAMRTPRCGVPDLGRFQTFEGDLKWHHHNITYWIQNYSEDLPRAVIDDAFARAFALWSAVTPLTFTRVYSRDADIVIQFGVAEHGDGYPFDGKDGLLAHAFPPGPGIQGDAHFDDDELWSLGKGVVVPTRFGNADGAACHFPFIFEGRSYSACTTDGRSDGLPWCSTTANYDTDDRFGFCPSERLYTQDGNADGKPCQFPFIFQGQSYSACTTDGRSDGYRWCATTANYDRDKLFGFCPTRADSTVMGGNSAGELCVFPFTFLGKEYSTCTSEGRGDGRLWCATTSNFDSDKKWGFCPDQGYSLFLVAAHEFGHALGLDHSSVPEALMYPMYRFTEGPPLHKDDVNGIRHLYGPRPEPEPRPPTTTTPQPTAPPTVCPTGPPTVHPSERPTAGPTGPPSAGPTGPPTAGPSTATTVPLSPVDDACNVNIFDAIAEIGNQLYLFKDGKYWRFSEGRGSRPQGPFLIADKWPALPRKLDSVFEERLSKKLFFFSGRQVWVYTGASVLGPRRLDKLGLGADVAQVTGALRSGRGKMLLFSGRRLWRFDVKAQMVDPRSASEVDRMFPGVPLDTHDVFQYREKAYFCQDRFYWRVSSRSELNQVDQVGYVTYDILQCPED
Chain of 72 kDa type IV collagenase (P08253 whole entry): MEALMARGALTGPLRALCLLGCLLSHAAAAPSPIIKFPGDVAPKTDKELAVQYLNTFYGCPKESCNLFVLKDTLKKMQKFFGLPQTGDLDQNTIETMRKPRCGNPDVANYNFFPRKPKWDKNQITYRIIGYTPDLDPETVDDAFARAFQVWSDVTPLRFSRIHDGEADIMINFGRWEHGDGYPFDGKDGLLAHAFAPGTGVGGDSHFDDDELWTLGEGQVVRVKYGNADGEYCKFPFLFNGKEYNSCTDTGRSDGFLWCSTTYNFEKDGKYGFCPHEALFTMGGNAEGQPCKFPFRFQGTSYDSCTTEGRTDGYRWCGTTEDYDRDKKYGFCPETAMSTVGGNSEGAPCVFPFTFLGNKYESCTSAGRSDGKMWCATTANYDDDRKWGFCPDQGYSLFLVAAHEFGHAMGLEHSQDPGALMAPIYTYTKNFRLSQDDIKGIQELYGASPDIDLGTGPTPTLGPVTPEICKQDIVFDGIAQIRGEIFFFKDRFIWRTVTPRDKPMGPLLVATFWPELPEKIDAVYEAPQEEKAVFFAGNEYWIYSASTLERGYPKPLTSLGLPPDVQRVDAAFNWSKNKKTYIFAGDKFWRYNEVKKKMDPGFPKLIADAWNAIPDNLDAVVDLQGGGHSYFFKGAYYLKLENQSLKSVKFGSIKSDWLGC
Chain of Disintegrin and metalloproteinase domain-containing protein 17 (P78536 whole entry, the tested form may be a part): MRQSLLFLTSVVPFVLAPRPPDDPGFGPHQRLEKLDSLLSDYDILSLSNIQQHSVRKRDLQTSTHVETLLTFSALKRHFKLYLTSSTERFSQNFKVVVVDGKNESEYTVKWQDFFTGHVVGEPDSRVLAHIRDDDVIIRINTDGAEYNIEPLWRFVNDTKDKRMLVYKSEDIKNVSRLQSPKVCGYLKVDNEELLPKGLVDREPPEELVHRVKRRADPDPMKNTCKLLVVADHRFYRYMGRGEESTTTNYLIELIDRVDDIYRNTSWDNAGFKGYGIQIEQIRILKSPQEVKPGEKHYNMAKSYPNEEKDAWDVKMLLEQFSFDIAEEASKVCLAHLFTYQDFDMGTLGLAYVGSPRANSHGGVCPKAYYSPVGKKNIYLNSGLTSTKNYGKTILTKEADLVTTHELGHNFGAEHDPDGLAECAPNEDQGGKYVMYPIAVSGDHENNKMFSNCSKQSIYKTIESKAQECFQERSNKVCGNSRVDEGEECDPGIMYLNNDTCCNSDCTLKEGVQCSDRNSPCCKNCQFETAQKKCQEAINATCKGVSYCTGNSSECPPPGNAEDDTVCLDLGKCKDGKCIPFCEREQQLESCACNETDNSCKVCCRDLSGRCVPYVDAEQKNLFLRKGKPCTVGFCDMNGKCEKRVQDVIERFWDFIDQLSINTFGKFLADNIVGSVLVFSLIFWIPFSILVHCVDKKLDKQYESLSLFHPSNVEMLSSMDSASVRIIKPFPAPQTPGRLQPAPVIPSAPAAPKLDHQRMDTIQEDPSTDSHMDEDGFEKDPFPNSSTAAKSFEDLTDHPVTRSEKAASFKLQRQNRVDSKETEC

Consider `CC(C)CN([C@@H](C(=O)NO)C(C)C)S(=O)(=O)c1ccc(-c2ccccc2)cc1`, for which the IC50 in assay [1] stood at 0.0053 µM; in assay [2] it was 0.003 µM.

In the case of `O=C(Cc1ccccc1S(=O)(=O)c1ccc(OCCCN2C(=O)c3ccccc3C2=O)cc1)NO`, the 50% inhibitory concentration (IC50) at Elastase was 38 µM; in assay [1], above 10 µM; in assay [3] it was 150 µM; in assay [4], 7 µM; in assay [2], above 10 µM; at Thermolysin [5], 132 µM.

`COc1ccc(S(=O)(=O)c2ccccc2CC(=O)NO)cc1`: the IC50 on Elastase was found to be 29 µM; in assay [3], 67 µM; in assay [4], 17 µM; on Thermolysin [5], 146 µM.

`CC(C)ON(CC(=O)NO)S(=O)(=O)c1ccc(Br)s1`: the concentration for half-maximal inhibition (IC50) on Thermolysin [6] was determined as 29 µM; at Elastase, 31 µM; in assay [1], 6.2 µM; in assay [3], 114 µM; in assay [4] it was 3.3 µM; in assay [2] it was 1.1 µM. Also, the IC50 on Thermolysin [5] came out at 29 µM.

For `COc1ccc(S(=O)(=O)N(CC(C)C)[C@@H](C(=O)NO)C(C)C)cc1`, the IC50 in assay [4] was 103 µM.

As to `O=C(CCNS(=O)(=O)c1ccc(-c2ccccc2)cc1)NO`, the IC50 at Thermolysin [6] is 30 µM; on Elastase it was 79 µM; in assay [1], 26 µM; in assay [4], 30 µM; in assay [2] it was 2.4 µM; on Thermolysin [5] it was 30 µM.

With `O=C(N[C@H](CCN1C(=O)c2ccccc2C1=O)C(=O)NO)c1ccc(Oc2ccccc2)cc1`, the IC50 in assay [1] was 8.2 µM; in assay [3], 9.5 µM; in assay [4] it was 16 µM; in assay [2] it was 9 µM.

In the case of `CC(C)ON([C@@H](C(=O)NO)C(C)C)S(=O)(=O)c1ccc(-c2ccccc2)cc1`, the IC50 in assay [3] is 14 µM.

For the molecule `COc1ccc(S(=O)(=O)N(CC(=O)NO)OC23CC4CC(CC(C4)C2)C3)cc1`, the half-maximal inhibitory concentration (IC50) in assay [1] and in assay [2] was 2 µM in each case.

For `CCCCC(NOCc1ccccc1)C(=O)NO` (configuration not stated), the IC50 at Elastase is 1.9 µM; in assay [3] it was 100 µM; in assay [4] it was 1.1 µM; at Thermolysin [5], 9.5 µM.
